Results taken from PMC11404765 (Journal of Clinical Oncology, 2024).
Marks after values point to notes of the source that are not given here.

What was measured:
[1] = tested on: BTC harboring FGFR2 fusions or rearrangements; settings: phase II trials; cited from earlier work
IDH1-mutant BTC = settings: phase III; cited from earlier work
advanced BTC = settings: phase III, added to chemotherapy, first-line advanced BTC; cited from earlier work
PK profiles in serum = assay type: in vivo, human

Molecule | ORR [1] [%] | Overall survival (OS) (advanced BTC) | further results
CCN1C(=O)N(c2c(F)c(OC)cc(OC)c2F)Cc2cnc3[nH]c(CN4CCOCC4)cc3c21 [pemigatinib] | 35.5 | – | –
N#Cc1ccnc(N2C(=O)CC[C@H]2C(=O)N(c2cncc(F)c2)[C@H](C(=O)NC2CC(F)(F)C2)c2ccccc2Cl)c1 [ivosidenib] | – | – | PFS compared with placebo (IDH1-mutant BTC): improved
pembrolizumab | – | improved overall survival | –
durvalumab | – | improved overall survival | –
CCN1CCN(c2ccc(Nc3cc(N(C)C(=O)Nc4c(Cl)c(OC)cc(OC)c4Cl)ncn3)cc2)CC1 [infigratinib] | 18.8 | – | –
CC[C@@]1(O)C(=O)OCc2c1cc1n(c2=O)Cc2c-1nc1cc(F)c(C)c3c1c2[C@@H](NC(=O)CO)CC3 [MAAA-1181a] | – | – | t1/2, mean (SD) (PK profiles in serum; n = 6): 4.76 (1.02) days; Tmax, median (range) (PK profiles in serum; n = 7): 3.88 (1.65-4.07) hours; Cmax, mean (SD) (PK profiles in serum; payload after T-DXd 5.4 mg/kg, n = 7): 11.5 (4.65)^a ng/mL
